Experiment: xn = mol fraction of the nth substance listed

CCCC[N+](CCCC)(CCCC)CCCC.O=S(=O)([O-])O + O=C1O[C@H]([C@@H](O)CO)C(O)=C1O + O
viscosity [mPa·s], 101 kPa
Settings | 298.15 K | 308.15 K | 318.15 K
x2 = 0.0003644, x1 = 0.0003601 | 0.908 | 0.734 | 0.61
x2 = 0.0003645, x1 = 9.006e-05 | 0.901 | 0.726 | 0.603
x2 = 0.000365, x1 = 0.0001801 | 0.903 | 0.729 | 0.605
x2 = 0.0003656, x1 = 0.0002701 | 0.906 | 0.731 | 0.607
x2 = 0.0006576, x1 = 0.0001801 | 0.91 | 0.734 | 0.608
x2 = 0.0006584, x1 = 9.003e-05 | 0.908 | 0.732 | 0.606
x2 = 0.0006587, x1 = 0.00027 | 0.912 | 0.737 | 0.611
x2 = 0.0006597, x1 = 0.00036 | 0.915 | 0.739 | 0.614
x2 = 0.0009539, x1 = 9.001e-05 | 0.913 | 0.737 | 0.611
x2 = 0.0009554, x1 = 0.00018 | 0.917 | 0.74 | 0.612
x2 = 0.0009567, x1 = 0.0003599 | 0.921 | 0.745 | 0.619
x2 = 0.0009569, x1 = 0.00027 | 0.919 | 0.742 | 0.617
x2 = 0.001253, x1 = 8.998e-05 | 0.92 | 0.743 | 0.615
x2 = 0.001255, x1 = 0.0001799 | 0.922 | 0.745 | 0.616
x2 = 0.001255, x1 = 0.0002699 | 0.924 | 0.748 | 0.621
x2 = 0.001257, x1 = 0.0003598 | 0.928 | 0.751 | 0.624
x2 = 0.001553, x1 = 8.995e-05 | 0.925 | 0.747 | 0.62
x2 = 0.001556, x1 = 0.0001799 | 0.929 | 0.75 | 0.622
x2 = 0.001558, x1 = 0.0002698 | 0.931 | 0.754 | 0.626
x2 = 0.001561, x1 = 0.0003597 | 0.934 | 0.757 | 0.629
x2 = 0.001859, x1 = 8.992e-05 | 0.931 | 0.751 | 0.625
x2 = 0.00186, x1 = 0.0001798 | 0.934 | 0.755 | 0.627
x2 = 0.001863, x1 = 0.0002697 | 0.938 | 0.758 | 0.631
x2 = 0.001866, x1 = 0.0003596 | 0.94 | 0.762 | 0.634

CCOS(=O)(=O)[O-].CC[n+]1ccn(C)c1 + CCCCCCO
100 kPa
Settings | viscosity [mPa·s]
288.15 K, x1 = 1 | 155.5
293.15 K, x1 = 0.1016 | 7.885
303.15 K, x1 = 0.5956 | 27.85
323.15 K, x1 = 0.4975 | 11.85

CCCCCC[n+]1ccn(C)c1.C[C@H](N)C(=O)[O-] + O
viscosity [mPa·s], 100 kPa
Settings | 288.15 K | 293.15 K | 298.15 K | 303.15 K | 308.15 K | 313.15 K | 318.15 K | 323.15 K | 328.15 K
x1 = 0.000299 | 1.156 | 1.017 | 0.902 | 0.809 | 0.728 | 0.661 | 0.603 | 0.554 | 0.512
x1 = 0.0003981 | 1.162 | 1.022 | 0.907 | 0.813 | 0.732 | 0.664 | 0.606 | 0.557 | 0.514
x1 = 0.0004989 | 1.167 | 1.026 | 0.911 | 0.816 | 0.735 | 0.666 | 0.608 | 0.559 | 0.516
x1 = 0.0009991 | 1.203 | 1.057 | 0.937 | 0.838 | 0.755 | 0.684 | 0.626 | 0.573 | 0.53
x1 = 0.003 | 1.361 | 1.191 | 1.05 | 0.933 | 0.833 | 0.754 | 0.684 | 0.626 | 0.576
x1 = 0.00499 | 1.512 | 1.325 | 1.162 | 1.027 | 0.916 | 0.825 | 0.745 | 0.681 | 0.625
x1 = 0.006965 | 1.656 | 1.445 | 1.272 | 1.118 | 0.997 | 0.893 | 0.805 | 0.736 | 0.672
x1 = 0.008965 | 1.819 | 1.573 | 1.367 | 1.202 | 1.069 | 0.958 | 0.866 | 0.781 | 0.717
x1 = 0.01103 | 1.954 | 1.694 | 1.475 | 1.287 | 1.145 | 1.026 | 0.928 | 0.831 | 0.763
x1 = 0.01294 | 2.097 | 1.814 | 1.577 | 1.377 | 1.223 | 1.087 | 0.984 | 0.887 | 0.807
x1 = 0.01501 | 2.242 | 1.953 | 1.69 | 1.466 | 1.303 | 1.161 | 1.035 | 0.936 | 0.854
x1 = 0.01801 | 2.455 | – | – | – | – | – | – | – | –
